Reference: ChEMBL document CHEMBL1156824, “Physicochemical space for optimum oral bioavailability: contribution of human intestinal absorption and first-pass elimination” (J Med Chem, 2010)

Assays:
clinical = details: human, in vivo
Homo sapiens = species: Homo sapiens; test: Hepatic clearance in human; details: in vivo

SMILES	CL renal (clinical)	CL (Homo sapiens)
Cc1nnc(SCC2=C(C(=O)O)N3C(=O)[C@@H](NC(=O)[C@H](O)c4ccccc4)[C@H]3SC2)s1	2.4 mL/min/kg	0.2 mL/min/kg
COc1ccccc1N1CCN(CCCNc2cc(=O)n(C)c(=O)n2C)CC1	0.5 mL/min/kg	2.6 mL/min/kg
C[C@H]1O[C@H](O[C@H]2[C@H](O)[C@@H](O)[C@@H](O[C@H]3[C@H](O)[C@@H](O)C(O)O[C@@H]3CO)O[C@@H]2CO)[C@H](O)[C@@H](O)[C@@H]1N[C@H]1C=C(CO)[C@@H](O)[C@H](O)[C@H]1O (stereo partly specified) [ACARBOSE]	2.1 mL/min/kg	0.1 mL/min/kg
C=CCN1CCCC1CNC(=O)c1cc2[nH]nnc2cc1OC (stereo unspecified) [ALIZAPRIDE]	5.3 mL/min/kg	1.3 mL/min/kg
CN(C)CCC=C1c2ccccc2CCc2ccccc21 [AMITRIPTYLINE]	0.1 mL/min/kg	6 mL/min/kg
Cc1cc(=O)n(-c2ccccc2)n1C [ANTIPYRINE]	0.0243 mL/min/kg	0.6 mL/min/kg
CNCC[C@@H](Oc1ccccc1C)c1ccccc1 [ATOMOXETINE]	0.3 mL/min/kg	9 mL/min/kg
O=C1CN=C(c2ccccn2)c2cc(Br)ccc2N1 [BROMAZEPAM]	0.3 mL/min/kg	0.3 mL/min/kg
CCCCNc1cc(C(=O)O)cc(S(N)(=O)=O)c1Oc1ccccc1 [BUMETANIDE]	1.5 mL/min/kg	1 mL/min/kg
CCCCN1CCCCC1C(=O)Nc1c(C)cccc1C (stereo unspecified) [BUPIVACAINE]	0.1 mL/min/kg	4.2 mL/min/kg
CS(=O)(=O)OCCCCOS(C)(=O)=O [BUSULFAN]	0.024 mL/min/kg	2.4 mL/min/kg
Cn1c(=O)c2c(ncn2C)n(C)c1=O [CAFFEINE]	0.017 mL/min/kg	1.4 mL/min/kg
O=C(O)CCCc1ccc(N(CCCl)CCCl)cc1 [CHLORAMBUCIL]	0.028 mL/min/kg	2.8 mL/min/kg
O=C(N[C@H](CO)[C@H](O)c1ccc([N+](=O)[O-])cc1)C(Cl)Cl [CHLORAMPHENICOL]	0.2 mL/min/kg	2.2 mL/min/kg
CN(C)CCC(c1ccc(Cl)cc1)c1ccccn1 (stereo unspecified) [CHLORPHENIRAMINE]	0.4 mL/min/kg	2.1 mL/min/kg
CN(C)CCCN1c2ccccc2Sc2ccc(Cl)cc21 [CHLORPROMAZINE]	0.2 mL/min/kg	15.8 mL/min/kg
CCCNC(=O)NS(=O)(=O)c1ccc(Cl)cc1 [CHLORPROPAMIDE]	0.009 mL/min/kg	0.036 mL/min/kg
NS(=O)(=O)c1cc(C2(O)NC(=O)c3ccccc32)ccc1Cl (stereo unspecified) [CHLORTHALIDONE]	1 mL/min/kg	0.5 mL/min/kg
COc1ccc([C@]2(C#N)CC[C@@H](C(=O)O)CC2)cc1OC1CCCC1 [CILOMILAST]	0.005 mL/min/kg	0.5 mL/min/kg
CN(C)CCCC1(c2ccc(F)cc2)OCc2cc(C#N)ccc21 (stereo unspecified) [CITALOPRAM]	0.5 mL/min/kg	3.8 mL/min/kg
CC[C@H]1OC(=O)[C@H](C)[C@@H](O[C@H]2C[C@@](C)(OC)[C@@H](O)[C@H](C)O2)[C@H](C)[C@@H](O[C@@H]2O[C@H](C)C[C@H](N(C)C)[C@H]2O)[C@](C)(OC)C[C@@H](C)C(=O)[C@H](C)[C@@H](O)[C@]1(C)O [CLARITHROMYCIN]	2.6 mL/min/kg	4.7 mL/min/kg
CCC[C@@H]1C[C@@H](C(=O)N[C@@H]([C@H]2O[C@H](SC)[C@H](O)[C@@H](O)[C@H]2O)[C@H](C)Cl)N(C)C1 [CLINDAMYCIN]	0.6 mL/min/kg	3.9 mL/min/kg
O=C1CN=C(c2ccccc2Cl)c2cc([N+](=O)[O-])ccc2N1 [CLONAZEPAM]	0.0088 mL/min/kg	0.9 mL/min/kg

SMILES	CL renal (clinical)	CL (Homo sapiens)
CN1C(=O)CC[C@H]1c1cccnc1 [COTININE]	0.1 mL/min/kg	0.8 mL/min/kg
C[C@@H]1C[C@H]2[C@@H]3CCC4=CC(=O)C=C[C@]4(C)[C@@]3(F)[C@@H](O)C[C@]2(C)[C@@]1(O)C(=O)CO [DEXAMETHASONE]	0.1 mL/min/kg	3.2 mL/min/kg
CCCCCN(CCCOC)C(=O)[C@@H](CCC(=O)O)NC(=O)c1ccc(Cl)c(Cl)c1 [DEXLOXIGLUMIDE]	0.4 mL/min/kg	3.3 mL/min/kg
CC1=NS(=O)(=O)c2cc(Cl)ccc2N1 [DIAZOXIDE]	0.1 mL/min/kg	
O=c1[nH]c2ccccc2n1CCCN1CCC(n2c(=O)[nH]c3cc(Cl)ccc32)CC1 [DOMPERIDONE]	0.038 mL/min/kg	9.5 mL/min/kg
CCN1CC(CCN2CCOCC2)C(c2ccccc2)(c2ccccc2)C1=O (stereo unspecified) [DOXAPRAM]	0.3 mL/min/kg	5 mL/min/kg
C[C@H]1c2cccc(O)c2C(=O)C2=C(O)[C@]3(O)C(=O)C(C(N)=O)=C(O)[C@@H](N(C)C)[C@@H]3[C@@H](O)[C@@H]21.O [DOXYCYCLINE]	0.2 mL/min/kg	0.3 mL/min/kg
Cn1c(=O)c2c(ncn2CC(O)CO)n(C)c1=O (stereo unspecified) [DYPHYLLINE]	4 mL/min/kg	0.8 mL/min/kg
CC(C)(C)NC(=O)[C@H]1CC[C@H]2[C@@H]3CC[C@H]4NC(=O)C=C[C@]4(C)[C@H]3CC[C@]12C [FINASTERIDE]	0.024 mL/min/kg	
OC(Cn1cncn1)(Cn1cncn1)c1ccc(F)cc1F [FLUCONAZOLE]	0.2 mL/min/kg	0.1 mL/min/kg
CCOC(=O)c1ncn2c1CN(C)C(=O)c1cc(F)ccc1-2 [FLUMAZENIL]	0.032 mL/min/kg	16 mL/min/kg
CCOC(=O)Nc1ccc(NCc2ccc(F)cc2)nc1N [FLUPIRTINE]	0.3 mL/min/kg	1.3 mL/min/kg
C[C@H]([C@](O)(Cn1cncn1)c1ccc(F)cc1F)S(C)(=O)=O [GENACONAZOLE]	0.2 mL/min/kg	0.038 mL/min/kg
C[C@@H]1C(=O)O[C@H]2C[C@@]34[C@H]5C[C@@H](C(C)(C)C)[C@]36[C@@H](OC(=O)[C@@H]6O)O[C@@]4(C(=O)O5)[C@]21O [GINKGOLIDE A]	1.7 mL/min/kg	0.7 mL/min/kg
C[C@@H]1C(=O)O[C@H]2[C@H](O)[C@@]34[C@H]5C[C@@H](C(C)(C)C)[C@]36[C@@H](OC(=O)[C@@H]6O)O[C@@]4(C(=O)O5)[C@@]12O [GINKOLIDE B]	1 mL/min/kg	1.3 mL/min/kg
CCC1=C(C)CN(C(=O)NCCc2ccc(S(=O)(=O)NC(=O)N[C@H]3CC[C@H](C)CC3)cc2)C1=O [GLIMEPIRIDE]	0.002 mL/min/kg	0.5 mL/min/kg
NS(=O)(=O)c1cc2c(cc1C(F)(F)F)NCNS2(=O)=O [HYDROFLUMETHIAZIDE]	9 mL/min/kg	0.7 mL/min/kg
NC(=O)NO [HYDROXYUREA]	0.5 mL/min/kg	1 mL/min/kg
O=P1(NCCCl)OCCCN1CCCl (stereo unspecified) [IFOSFAMIDE]	0.6 mL/min/kg	0.5 mL/min/kg
Cc1cc(NC(=O)C2=C(O)c3ccccc3S(=O)(=O)N2C)no1 [ISOXICAM]	0.0014 mL/min/kg	0.1 mL/min/kg
COc1ccc2c(c1)N(C[C@H](C)CN(C)C)c1ccccc1S2 [LEVOMEPROMAZINE]	4 mL/min/kg	5.9 mL/min/kg
COC(=O)Nc1nc2ccc(C(=O)c3ccccc3)cc2[nH]1 [MEBENDAZOLE]	0.2 mL/min/kg	14.8 mL/min/kg
COCCc1ccc(OCC(O)CNC(C)C)cc1 (stereo unspecified) [METOPROLOL]	0.7 mL/min/kg	12.4 mL/min/kg

SMILES	CL renal (clinical)	CL (Homo sapiens)
CN1CCN2c3ncccc3Cc3ccccc3C2C1 (stereo unspecified) [MIRTAZAPINE]	0.3 mL/min/kg	7.7 mL/min/kg
O=C(NCCN1CCOCC1)c1ccc(Cl)cc1 [MOCLOBEMIDE]	0.1 mL/min/kg	10 mL/min/kg
CC(C)(O)c1ccccc1CC[C@@H](SCC1(CC(=O)O)CC1)c1cccc(/C=C/c2ccc3ccc(Cl)cc3n2)c1 [MONTELUKAST]	0.0014 mL/min/kg	0.7 mL/min/kg
CN(C)C(=O)Oc1cccc([N+](C)(C)C)c1.[Br-] [NEOSTIGMINE BROMIDE]	5.4 mL/min/kg	3.8 mL/min/kg
Cc1ccnc2c1NC(=O)c1cccnc1N2C1CC1 [NEVIRAPINE]	0.0069 mL/min/kg	0.3 mL/min/kg
O=C1CN=C(c2ccccc2)c2cc([N+](=O)[O-])ccc2N1 [NITRAZEPAM]	0.0086 mL/min/kg	0.9 mL/min/kg
Cc1nccn1CC1CCc2c(c3ccccc3n2C)C1=O (stereo unspecified) [ONDANSETRON]	0.3 mL/min/kg	5.5 mL/min/kg
NC(=O)CN1CC(O)CC1=O (stereo unspecified) [OXIRACETAM]	1.7 mL/min/kg	0.1 mL/min/kg
c1ccc(C2(N3CCCCC3)CCCCC2)cc1 [PHENCYCLIDINE]	0.8 mL/min/kg	4.3 mL/min/kg
CCC1(c2ccccc2)C(=O)NC(=O)NC1=O [PHENOBARBITAL]	0.0151 mL/min/kg	0.0479 mL/min/kg
CC1CCCC(C)N1CCCC(O)(c1ccccc1)c1ccccn1 (stereo unspecified) [PIRMENOL]	0.7 mL/min/kg	1.1 mL/min/kg
OC(CCN1CCCC1)(c1ccccc1)C1CCCCC1 (stereo unspecified) [PROCYCLIDINE]	0.043 mL/min/kg	0.8 mL/min/kg
CCN1CCC[C@H]1CNC(=O)c1c(OC)ccc(Br)c1OC [REMOXIPRIDE]	0.4 mL/min/kg	1.3 mL/min/kg
CCOc1cc(CC(=O)N[C@@H](CC(C)C)c2ccccc2N2CCCCC2)ccc1C(=O)O [REPAGLINIDE]	0.1 mL/min/kg	7.7 mL/min/kg
CN(C(=O)c1c(O)c2ccccc2n(C)c1=O)c1ccccc1 [ROQUINIMEX]	0.0008 mL/min/kg	0.1 mL/min/kg
Cc1ccc(C(=O)Nc2ccc(S(=O)(=O)O)c3cc(S(=O)(=O)O)cc(S(=O)(=O)O)c23)cc1NC(=O)c1cccc(NC(=O)Nc2cccc(C(=O)Nc3cc(C(=O)Nc4ccc(S(=O)(=O)O)c5cc(S(=O)(=O)O)cc(S(=O)(=O)O)c45)ccc3C)c2)c1 [SURAMIN]	0.0046 mL/min/kg	0.0011 mL/min/kg
CCCCCNC(=N)N/N=C/c1c[nH]c2ccc(OC)cc12 [TEGASEROD]	0.4 mL/min/kg	17.6 mL/min/kg
COc1cc2nc(N3CCN(C(=O)C4CCCO4)CC3)nc(N)c2cc1OC (stereo unspecified) [TERAZOSIN]	0.1 mL/min/kg	1 mL/min/kg
CC(CC(c1ccccc1)c1ccccc1)NC(C)(C)C (stereo unspecified) [TERODILINE]	0.1 mL/min/kg	1 mL/min/kg
CCO[C@@H](Cc1ccc(OCCc2ccc(OS(C)(=O)=O)cc2)cc1)C(=O)O [TESAGLITAZAR]	0.007 mL/min/kg	0.032 mL/min/kg
CCCC(CCC)C(=O)O [VALPROIC ACID]	0.0029 mL/min/kg	
